Source: patent US20230116972A1, “CD38 MODULATORS AND METHODS OF USE THEREOF” (Cytokinetics, Inc., priority 2021, published 2023)

Experiments:
[1] = target: T1, human CD38 (Homo sapiens, UniProt P28907); assay: human recombinant CD38 enzyme assay (hydrolysis of NAD+); assay type: biochemical; settings: human recombinant CD38, 0.4 nM enzyme, 62.5 μM NAD+; read-out: hCD38 BioChem IC50
T1 sequence (P28907 1-300): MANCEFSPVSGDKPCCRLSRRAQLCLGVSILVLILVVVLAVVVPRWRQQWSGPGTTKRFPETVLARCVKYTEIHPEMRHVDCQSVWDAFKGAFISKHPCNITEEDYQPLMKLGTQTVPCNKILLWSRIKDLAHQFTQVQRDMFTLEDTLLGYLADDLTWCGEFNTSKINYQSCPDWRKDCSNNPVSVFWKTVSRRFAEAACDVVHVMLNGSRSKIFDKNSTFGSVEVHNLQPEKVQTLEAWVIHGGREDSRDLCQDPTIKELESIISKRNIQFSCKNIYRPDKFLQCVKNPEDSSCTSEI
Outline: (§1)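 Steps: compound and recombinant enzyme are mixed, NAD+ is added, and the reaction runs 60 min at room temperature. An ADH/ethanol mix containing a CD38 inhibitor halts hydrolysis and forms NADH. After NaOH quench, resazurin plus diaphorase produce fluorescent resorufin, read at 540/590 nm.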

[2] = target: T2, mouse CD38 (Mus musculus, UniProt P56528); assay: mouse recombinant CD38 enzyme assay (hydrolysis of NAD+); assay type: biochemical; settings: read-out: mCD38 BioChem IC50
T2 sequence (P56528 1-304): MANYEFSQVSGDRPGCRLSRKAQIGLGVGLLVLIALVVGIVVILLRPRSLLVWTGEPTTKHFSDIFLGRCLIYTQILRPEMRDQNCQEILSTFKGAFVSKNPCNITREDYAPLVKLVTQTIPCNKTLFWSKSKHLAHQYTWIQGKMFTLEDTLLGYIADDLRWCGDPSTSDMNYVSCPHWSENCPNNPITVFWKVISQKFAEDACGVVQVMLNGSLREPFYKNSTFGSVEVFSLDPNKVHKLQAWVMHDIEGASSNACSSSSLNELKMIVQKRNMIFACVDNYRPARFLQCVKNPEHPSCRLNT
Outline: as §1

[3] = target: T3, endogenous CD38 in HL60 cells (Homo sapiens, UniProt P28907); assay: cellular CD38 assay in HL60 cells (cellular NAD levels); assay type: cell-based; settings: all-trans retinoic acid, 24 hours, read-out: hCD38 HL60 ATRA NAD Cell Diaphorase IC50
T3 construct: endogenous in cells; host or cells: HL60 (leukemic cells, treated with all-trans retinoic acid)
T3 sequence (P28907 1-300): T1 sequence (P28907 1-300)
Outline: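 Endogenous CD38 inhibition is inferred from NAD levels in HL60 cells after 24 h compound exposure at 20000 cells per well. A lytic cycling readout (0.2 U/mL diaphorase, 0.8 U/mL alcohol dehydrogenase, resazurin, FMN, ethanol, 0.2% Triton X-100, Tris/EDTA pH 8.4) ran 60 min at ambient temperature. Resorufin fluorescence was read at 540/590 nm.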

## O=C(N[C@H]1C[C@H](c2ccc(C(F)(F)F)nc2)C1)c1nccc(-n2ccnc2)n1 [Compound 269, 4-(1H-imidazol-1-yl)-N-((1r,3r)-3-(6-(trifluoromethyl)pyridin-3-yl)cyclobutyl)pyrimidine-2-carboxamide]
[1]
  IC50: 0.199 µM
[2]
  IC50: 0.175 µM
[3]
  IC50: 3.95 µM

## Cn1cncc1-c1ccnc(C(=O)N[C@H]2C[C@H](c3ccnc(C(F)(F)F)c3)C2)n1 [Compound 270, 4-(1-methyl-1H-imidazol-5-yl)-N-((1r,3r)-3-(2-(trifluoromethyl)pyridin-4-yl)cyclobutyl)pyrimidine-2-carboxamide]
[1]
  IC50: 0.0137 µM
[2]
  IC50: 0.0439 µM
[3]
  IC50: 1.13 µM

## Cn1cncc1-c1ccnc(C(=O)N[C@H]2C[C@H](c3ccc(C(F)(F)F)nc3)C2)n1 [Compound 273, 4-(1-methyl-1H-imidazol-5-yl)-N-((1r,3r)-3-(6-(trifluoromethyl)pyridin-3-yl)cyclobutyl)pyrimidine-2-carboxamide]
[1]
  IC50: 0.0719 µM
[2]
  IC50: 0.0537 µM
[3]
  IC50: 2.47 µM

## Cn1cncc1-c1ccnc(C(=O)N[C@H]2C[C@@H](c3ccc(C(F)(F)F)nc3)C2)n1 [Compound 274, 4-(1-methyl-1H-imidazol-5-yl)-N-((1s,3s)-3-(6-(trifluoromethyl)pyridin-3-yl)cyclobutyl)pyrimidine-2-carboxamide]
[1]
  IC50: 0.404 µM
[2]
  IC50: 0.185 µM
[3]
  IC50: 10.8 µM

## Cn1cncc1-c1ccnc(C(=O)N[C@H]2CC[C@H](OC(F)F)CC2)n1 [Compound 275, N-((1r,4r)-4-(difluoromethoxy)cyclohexyl)-4-(1-methyl-1H-imidazol-5-yl)pyrimidine-2-carboxamide]
[1]
  IC50: 0.0315 µM
[2]
  IC50: 0.0154 µM
[3]
  IC50: 2.21 µM

## Cn1cncc1-c1ccnc(C(=O)Nc2ccc(OC(F)F)nc2)n1 [Compound 276, N-(6-(difluoromethoxy)pyridin-3-yl)-4-(1-methyl-1H-imidazol-5-yl)pyrimidine-2-carboxamide]
[1]
  IC50: 0.0014 µM
[2]
  IC50: 0.0044 µM
[3]
  IC50: 0.209 µM

## Cn1cncc1-c1nc(C(=O)N[C@H]2C[C@](O)(c3ccccc3)C2)cc(C2CCOCC2)n1 [Compound 277, N-((1s,3s)-3-hydroxy-3-phenylcyclobutyl)-2-(1-methyl-1H-imidazol-5-yl)-6-(tetrahydro-2H-pyran-4-yl)pyrimidine-4-carboxamide]
[1]
  IC50: 0.0079 µM
[2]
  IC50: 0.0107 µM
[3]
  IC50: 2.07 µM

## COc1ncc(-c2cncn2C)nc1C(=O)Nc1ccc(C(F)(F)F)nc1 [Compound 279, 3-methoxy-6-(1-methyl-1H-imidazol-5-yl)-N-(6-(trifluoromethyl)pyridin-3-yl)pyrazine-2-carboxamide]
[1]
  IC50: 0.0051 µM
[2]
  IC50: 0.0426 µM
[3]
  IC50: 0.865 µM

## Cn1cncc1-c1nc(C(=O)N[C@@H]2C[C@@H]3[C@H](C2)C3(F)F)cc(C2CCOCC2)n1 [Compound 280, N-((1R,3s,5S)-6,6-difluorobicyclo[3.1.0]hexan-3-yl)-2-(1-methyl-1H-imidazol-5-yl)-6-(tetrahydro-2H-pyran-4-yl)pyrimidine-4-carboxamide]
[1]
  IC50: 0.0107 µM
[2]
  IC50: 0.0032 µM
[3]
  IC50: 1.5 µM

## Cn1cncc1-c1nc(C(=O)N[C@H]2CC[C@H](OC(F)F)CC2)cc(C2CCOCC2)n1 [Compound 281, N-((1r,4r)-4-(difluoromethoxy)cyclohexyl)-2-(1-methyl-1H-imidazol-5-yl)-6-(tetrahydro-2H-pyran-4-yl)pyrimidine-4-carboxamide]
[1]
  IC50: 0.0041 µM
[2]
  IC50: 0.0013 µM
[3]
  IC50: 1.33 µM

## Cn1cncc1-c1nc(C(=O)Nc2ccc(OC(F)F)nc2)cc(C2CCOCC2)n1 [Compound 282, N-(6-(difluoromethoxy)pyridin-3-yl)-2-(1-methyl-1H-imidazol-5-yl)-6-(tetrahydro-2H-pyran-4-yl)pyrimidine-4-carboxamide]
[1]
  IC50: 0.0024 µM
[2]
  IC50: 0.0007 µM
[3]
  IC50: 0.655 µM

## Cn1cncc1-c1nc(C(=O)N[C@H]2C[C@H](C(C)(C)O)C2)cc(C2CCOCC2)n1 [Compound 283, N-((1r,3r)-3-(2-hydroxypropan-2-yl)cyclobutyl)-2-(1-methyl-1H-imidazol-5-yl)-6-(tetrahydro-2H-pyran-4-yl)pyrimidine-4-carboxamide]
[1]
  IC50: 0.0184 µM
[2]
  IC50: 0.0043 µM
[3]
  IC50: 5.69 µM

## Cn1cncc1-c1ccnc(C(=O)N[C@H]2C[C@H](C(C)(C)O)C2)n1 [Compound 284, N-((1r,3r)-3-(2-hydroxypropan-2-yl)cyclobutyl)-4-(1-methyl-1H-imidazol-5-yl)pyrimidine-2-carboxamide]
[1]
  IC50: 0.277 µM
[2]
  IC50: 0.0597 µM
[3]
  IC50: 11 µM

## Cn1cncc1-c1nc(C(=O)Nc2ccc(C(F)(F)F)nc2)cc(C2CCC(F)(F)CC2)n1 [Compound 285, 6-(4,4-difluorocyclohexyl)-2-(1-methyl-1H-imidazol-5-yl)-N-(6-(trifluoromethyl)pyridin-3-yl)pyrimidine-4-carboxamide]
[1]
  IC50: 0.0086 µM
[2]
  IC50: 0.001 µM
[3]
  IC50: 1.24 µM

## Cn1cncc1-c1nc(C(=O)NC2CC3(COC3)C2)cc(C2CCC(F)(F)CC2)n1 [Compound 286, 6-(4,4-difluorocyclohexyl)-2-(1-methyl-1H-imidazol-5-yl)-N-(2-oxaspiro[3.3]heptan-6-yl)pyrimidine-4-carboxamide]
[1]
  IC50: 0.0081 µM
[2]
  IC50: 0.0012 µM
[3]
  IC50: 3.73 µM

## Cn1cncc1-c1nc(C(=O)Nc2ccc(C(F)F)nc2)cc(C2CCC(F)(F)CC2)n1 [Compound 287, 6-(4,4-difluorocyclohexyl)-N-(6-(difluoromethyl)pyridin-3-yl)-2-(1-methyl-1H-imidazol-5-yl)pyrimidine-4-carboxamide]
[1]
  IC50: 0.0031 µM
[2]
  IC50: 0.0007 µM
[3]
  IC50: 0.882 µM

## Cn1cncc1-c1nc(C(=O)N[C@H]2CC[C@H](O)CC2)cc(C2CCC(F)(F)CC2)n1 [Compound 288, 6-(4,4-difluorocyclohexyl)-N-((1r,4r)-4-hydroxycyclohexyl)-2-(1-methyl-1H-imidazol-5-yl)pyrimidine-4-carboxamide]
[1]
  IC50: 0.0103 µM
[2]
  IC50: 0.001 µM
[3]
  IC50: 2.58 µM

## Cn1cncc1-c1nc(C(=O)N[C@H]2C[C@H](Oc3ccccc3)C2)cc(C2CCOCC2)n1 [Compound 291, 2-(1-methyl-1H-imidazol-5-yl)-N-((1r,3r)-3-phenoxycyclobutyl)-6-(tetrahydro-2H-pyran-4-yl)pyrimidine-4-carboxamide]
[1]
  IC50: 0.0041 µM
[2]
  IC50: 0.0034 µM
[3]
  IC50: 2.62 µM

## Cn1cncc1-c1nc(C(=O)NC23CC(C(C)(C)O)(C2)C3)cc(C2CCOCC2)n1 [Compound 292, N-(3-(2-hydroxypropan-2-yl)bicyclo[1.1.1]pentan-1-yl)-2-(1-methyl-1H-imidazol-5-yl)-6-(tetrahydro-2H-pyran-4-yl)pyrimidine-4-carboxamide]
[1]
  IC50: 0.0214 µM
[2]
  IC50: 0.0071 µM
[3]
  IC50: 6.61 µM

## O=C(N[C@H]1CC[C@H](OC(F)F)CC1)c1nccc(-n2ccnc2)n1 [Compound 293, N-((1r,4r)-4-(difluoromethoxy)cyclohexyl)-4-(1H-imidazol-1-yl)pyrimidine-2-carboxamide]
[1]
  IC50: 0.0585 µM
[2]
  IC50: 0.0362 µM
[3]
  IC50: 2.83 µM

## Cn1cncc1-c1ccnc(C(=O)NC23CC(C(C)(C)O)(C2)C3)n1 [Compound 294, N-(3-(2-hydroxypropan-2-yl)bicyclo[1.1.1]pentan-1-yl)-4-(1-methyl-1H-imidazol-5-yl)pyrimidine-2-carboxamide]
[1]
  IC50: 0.251 µM
[2]
  IC50: 0.176 µM
[3]
  IC50: 4.48 µM

## Cc1ncc(-c2cncn2C)nc1C(=O)Nc1ccc(C(F)(F)F)nc1 [Compound 296, 3-methyl-6-(1-methyl-1H-imidazol-5-yl)-N-(6-(trifluoromethyl)pyridin-3-yl)pyrazine-2-carboxamide]
[1]
  IC50: 0.0087 µM
[2]
  IC50: 0.0099 µM
[3]
  IC50: 1.14 µM

## CCO[C@H]1C[C@H](NC(=O)c2nccc(-c3cncn3C)n2)C1 [Compound 299, N-((1r,3r)-3-ethoxycyclobutyl)-4-(1-methyl-1H-imidazol-5-yl)pyrimidine-2-carboxamide]
[1]
  IC50: 0.288 µM
[2]
  IC50: 0.0748 µM
[3]
  IC50: 4.1 µM

## Cn1cncc1-c1nc(C(=O)N[C@H]2CC[C@H](NCC(F)(F)F)CC2)cc(C2CCOCC2)n1 [Compound 300, 2-(1-methyl-1H-imidazol-5-yl)-6-(tetrahydro-2H-pyran-4-yl)-N-((1r,4r)-4-((2,2,2-trifluoroethyl)amino)cyclohexyl) pyrimidine-4-carboxamide]
[1]
  IC50: 0.0157 µM
[2]
  IC50: 0.0016 µM
[3]
  IC50: 2.12 µM
